Source: publication PMC9182007, “Statistical Methods in the Study of Protein Binding and Its Relationship to Drug Bioavailability in Breast Milk” (Molecules, 2022)
Read-outs that look alike come from different tables or passages of the source.

Columns and labels:
[1] = Milk-to-plasma (M/P) drug concentration ratio obtained in vivo, from literature; parameters: species or system human; details: Table S1, scale of drug penetration into milk 1-4
[2] = biological target: T1, bovine serum albumin (BSA) (Bos taurus, UniProt P02769); assay: NP TLC on plates impregnated with bovine serum albumin; assay type: binding; details: for NP (Rf, BSA-impregnated NP plate): Table S3, NP plate impregnated with 2 mg/mL BSA, pH 7.4 mobile phase
T1 construct: purchased Sigma Aldrich
T1 sequence (P02769 25-607): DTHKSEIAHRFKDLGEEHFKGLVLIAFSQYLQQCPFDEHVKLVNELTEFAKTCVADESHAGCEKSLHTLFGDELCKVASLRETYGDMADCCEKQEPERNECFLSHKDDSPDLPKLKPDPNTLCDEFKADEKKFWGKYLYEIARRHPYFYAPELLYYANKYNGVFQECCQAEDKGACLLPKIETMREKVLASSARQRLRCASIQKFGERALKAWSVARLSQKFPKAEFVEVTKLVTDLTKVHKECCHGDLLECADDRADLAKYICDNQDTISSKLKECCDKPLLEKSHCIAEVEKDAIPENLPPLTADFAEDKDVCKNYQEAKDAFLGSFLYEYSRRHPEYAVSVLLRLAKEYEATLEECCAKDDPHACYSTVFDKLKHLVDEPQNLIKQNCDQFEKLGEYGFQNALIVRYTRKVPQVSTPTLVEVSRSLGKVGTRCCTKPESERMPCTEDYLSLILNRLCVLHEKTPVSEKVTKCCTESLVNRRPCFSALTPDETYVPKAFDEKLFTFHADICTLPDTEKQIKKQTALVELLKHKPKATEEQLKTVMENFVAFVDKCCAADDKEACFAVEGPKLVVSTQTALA
From the text: (§1) Chromatographic descriptors were obtained in experiments, thin layer chromatography in normal (NP TLC) and reversed mode (RP TLC). The stationary phase was modified with bovine serum albumin (BSA). TLC was the source of retention factor (Rf) values, denoted in statistical models as NP and RP.
(§2) For TLC chromatography, glass plates 20 × 20 cm from Merck, covered with silica gel with the addition of a fluorescent indicator, were used. Normal phase (NP) plates were used with standard Merck TLC Silica gel 60 F254 plates, while in reverse phase (RP) silanized plates RP-2: Merck TLC Silica gel 60 RP-2 F254 were used.
(§3) The stationary phase of the plates, both NP and RP, was modified with an aqueous solution of bovine serum albumin purchased from Sigma Aldrich (bovine serum albumin, lyophilized powder).
(§4) The impregnation of the plates was carried out with a 2 mg/mL solution applied to the surface using a Desaga SG 1 hand sprayer; the plates were then air dried. […] Normal and reversed phase thin layer chromatography (NP TLC and RP TLC respectively) was performed using silica-gel-coated glass plates. Half of them were covered with 2 mg/mL bovine serum albumin solution and half remained pure.
(§5) The mobility of the compounds was also determined on the plates with no protein as a modifier. […] The acetate buffer (20 mM) was prepared by dissolving 1.54 g of ammonium acetate in 1 L of distilled water. The pH was then adjusted with a concentrated ammonia solution using a pH meter. The plates were developed in standard, vertical chromatographic chambers, each time using 100 mL of the mobile phase, after the chamber was previously saturated with solvent vapors for approximately 1 h.
(§6) The unfolded-protein-impregnated plates and the control plates were scanned with a Desaga CD 60 densitometer. The values of the delay factor (Rf) were collected, i.e., the ratio of the distance traveled by the substance to be analyzed to the distance traveled through the front of the mobile phase. […] The experiment was repeated (for both BSA-coated and control plates) and the Rf values pooled are the mean of both series of experiments.

[3] = biological target: T1, bovine serum albumin (BSA); assay: RP TLC on plates impregnated with bovine serum albumin; assay type: binding; details: for RP (Rf, BSA-impregnated RP plate): Table S4, RP plate impregnated with 2 mg/mL BSA, pH 7.4 mobile phase
From the text: as §1, §2, §3, §4, §5, §6

[4] = NP TLC on non-impregnated control plates; assay type: physicochemical; details: for CNP (Rf, control NP plate): Table S3, non-impregnated NP plate, acetonitrile/acetate buffer pH 7.4/methanol 60:20:20
[5] = RP TLC on non-impregnated control plates; assay type: physicochemical; details: for CRP (Rf, control RP plate): Table S4, non-impregnated RP plate, acetonitrile/acetate buffer pH 7.4/methanol 60:20:20
[6] = HPLC on immobilized artificial membrane column (HPLCIAM); assay type: physicochemical; details: for log k IAM: Table S5, IAM column, pH 7.4; for k IAM: Table S5, retention factor, IAM column, phosphate buffer pH 7.4/acetonitrile 80:20
[7] = biological target: T2, human serum albumin (HSA) (Homo sapiens, UniProt P02768); details: for log k HSA: Table S5, HSA
T2 sequence (P02768 25-609): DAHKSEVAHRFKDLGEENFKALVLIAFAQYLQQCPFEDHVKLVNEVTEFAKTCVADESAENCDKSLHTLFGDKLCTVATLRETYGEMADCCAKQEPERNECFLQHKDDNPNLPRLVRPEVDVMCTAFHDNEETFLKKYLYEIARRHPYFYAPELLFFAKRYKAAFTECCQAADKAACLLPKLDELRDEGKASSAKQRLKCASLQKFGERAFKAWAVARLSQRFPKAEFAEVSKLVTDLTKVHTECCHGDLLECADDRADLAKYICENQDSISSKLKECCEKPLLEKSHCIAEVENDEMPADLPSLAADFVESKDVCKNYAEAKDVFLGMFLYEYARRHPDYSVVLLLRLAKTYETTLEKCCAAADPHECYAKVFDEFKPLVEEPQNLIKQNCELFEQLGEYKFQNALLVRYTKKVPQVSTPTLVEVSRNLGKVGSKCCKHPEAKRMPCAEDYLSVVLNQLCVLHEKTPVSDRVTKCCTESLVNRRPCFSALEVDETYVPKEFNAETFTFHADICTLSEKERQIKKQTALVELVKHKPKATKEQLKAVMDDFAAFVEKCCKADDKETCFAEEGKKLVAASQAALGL
Method: (§7) High performance liquid chromatography was performed using immobilized human serum albumin column (HPLCHSA) and immobilized artificial membrane (HPLCIAM). HPLC was the source of the log k values (logarithm of retention factor), log kHSA and log kIAM.
(§8) High performance liquid chromatography was performed using a chromatography column with immobilized human serum albumin. The assay was performed on a Perkin Elmer Series 200 instrument connected to a UV-VIS spectrometer as detector. The analytical wavelength was the same for all compounds at 210 nm. […] The acetate buffer was prepared by dissolving 0.77 g of ammonium acetate in 1 L of distilled water. The pH was then adjusted with a concentrated ammonia solution using a pH meter.
(§9) The phase flow through the system was set to 0.9 mL/min as recommended by the column manufacturer. The solutions were delivered to the column using an autosampler syringe, the injection size was 10 µL. Since the column could not be thermostated, the room was kept at a constant temperature of 25 degrees Celsius.
(§10) Chromatographic data (retention coefficient, k, and derivative, log k) were obtained with TotalChrom software connected to an HPLC instrument. […] The experiment was then repeated and the collected retention rates were the mean values of both series.

[8] = biological target: T2, human serum albumin (HSA); assay: in vitro; details: immobilized hsa column, pH 7.4
Method: as §7, §8, §9, §10

[9] = cited from earlier work
[10] = system: plasma protein; details: ref DrugBank [7], cited from earlier work
[11] = source not stated, cited from earlier work
[12] = ref DrugBank [7], cited from earlier work
[13] = Table S5, retention factor, HSA column, pH 7.4, 25 degrees Celsius
[14] = Table S1, milk/plasma drug concentration ratio, in vivo
[15] = Table S1, plasma protein binding given as fraction

For `CN1CCN2c3ccccc3Cc3ccccc3C2C1` (stereo not drawn) [mianserin], the M/P code [1] was 4 (4 is M/P >1.20—dangerous), the “NP (Rf, BSA-impregnated NP plate)” value [2] was 0.55 and the “RP (Rf, BSA-impregnated RP plate)” value [3] was 0.55. The “CNP (Rf, control NP plate)” value [4] was 0.54, the “CRP (Rf, control RP plate)” value [5] was 0.55 and the “log k IAM” value [6] was 1.34. For the same compound, the “k IAM” value [6] was 21.72, the “k HSA” value [7, 13] was 6.39 and the chromatographic logD [8] was 0.81. The M/P [9, 14] was 2.2, the PB [10, 15] was 0.9 and the BB vivo ([11]; Table S1) was 0.990. For the same compound, the “CNS+/-” value ([12]; Table S1, coded 1/0) was 1.

With `CN1CCN2c3ncccc3Cc3ccccc3C2C1` (stereo not drawn) [mirtazapine] the M/P code [1] was 3 (3 range 0.81–1.20—possibly over the safety limit), the “NP (Rf, BSA-impregnated NP plate)” value [2] was 0.39 and the “RP (Rf, BSA-impregnated RP plate)” value [3] was 0.58. For the same compound, the “CNP (Rf, control NP plate)” value [4] was 0.39, the “CRP (Rf, control RP plate)” value [5] was 0.58 and the “log k IAM” value [6] was 0.77. The “k IAM” value [6] was 5.83, the “k HSA” value [7, 13] was 2.96 and the chromatographic logD [8] was 0.47. The M/P [9, 14] was 1.1, the BB vivo ([11]; Table S1) was 0.530 and the “CNS+/-” value ([12]; Table S1, coded 1/0) was 1.

In the case of `CC(C)C[C@H]1C(=O)N2CCC[C@H]2[C@]2(O)O[C@](NC(=O)[C@@H]3C=C4c5cccc6[nH]c(Br)c(c56)C[C@H]4N(C)C3)(C(C)C)C(=O)N12` [bromocriptine], the “NP (Rf, BSA-impregnated NP plate)” value [2] is reported as 0.96, the “RP (Rf, BSA-impregnated RP plate)” value [3] is reported as 0.70 and the “CNP (Rf, control NP plate)” value [4] is reported as 0.95. The “CRP (Rf, control RP plate)” value [5] was 0.69, the “log k IAM” value [6] was 1.10 and the “k IAM” value [6] was 12.69. The “k HSA” value ([7]; pH 7.4) was 8.09, the chromatographic logD [8] was 0.91 and the PB [10, 15] was 0.93. For the same compound, the BB vivo ([11]; Table S1) was -1.100.

For `OCCOCCN1CCN(C(c2ccccc2)c2ccc(Cl)cc2)CC1` (stereo not drawn) [hydroxyzine], the “NP (Rf, BSA-impregnated NP plate)” value [2] was 0.55, the “CNP (Rf, control NP plate)” value [4] was 0.55 and the “log k IAM” value [6] was 1.14. For the same compound, the “k IAM” value [6] was 13.82, the “k HSA” value [7, 13] was 3.69 and the chromatographic logD [8] was 0.57. The PB [10, 15] was 0.93, the BB vivo ([11]; Table S1) was 0.285 and the “CNS+/-” value ([12]; Table S1, coded 1/0) was 1.

In the case of `CN(C)CCCN1c2ccccc2Sc2ccc(Cl)cc21` [chlorpromazine], the “NP (Rf, BSA-impregnated NP plate)” value [2] is reported as 0.43, the “RP (Rf, BSA-impregnated RP plate)” value [3] is reported as 0.50 and the “CNP (Rf, control NP plate)” value [4] is reported as 0.43. For the same compound, the “CRP (Rf, control RP plate)” value [5] was 0.49, the “log k IAM” value [6] was 1.77 and the “k IAM” value [6] was 58.85. For the same compound, the “k HSA” value [7, 13] was 13.33, the chromatographic logD [8] was 1.12 and the PB [10, 15] was 0.9. For the same compound, the BB vivo ([11]; Table S1) was 0.950.

In the case of `CC(=O)Nc1ccc(O)cc1` [paracetamol], the M/P code [1] is reported as 3 (3 range 0.81–1.20—possibly over the safety limit), the “NP (Rf, BSA-impregnated NP plate)” value [2] is reported as 0.94 and the “RP (Rf, BSA-impregnated RP plate)” value [3] is reported as 0.92. For the same compound, the “CNP (Rf, control NP plate)” value [4] was 0.93, the “CRP (Rf, control RP plate)” value [5] was 0.92 and the “log k IAM” value [6] was -0.49. The “k IAM” value [6] was 0.32, the “log k HSA” value ([7]; pH 7.4) was -0.55 and the “k HSA” value [7, 13] was 0.28. For the same compound, the M/P [9, 14] was 0.84, the PB [10, 15] was 0.25 and the BB vivo ([11]; Table S1) was -0.463. The “CNS+/-” value ([12]; Table S1, coded 1/0) was 1.

For `CN1C(=O)CC(=O)N(c2ccccc2)c2cc(Cl)ccc21` [clobazam], the M/P code [1] was 1 (Code 1 corresponds to drugs with an M/P value <0.40—completely safe), the “NP (Rf, BSA-impregnated NP plate)” value [2] was 0.95 and the “RP (Rf, BSA-impregnated RP plate)” value [3] was 0.80. For the same compound, the “CNP (Rf, control NP plate)” value [4] was 0.95, the “CRP (Rf, control RP plate)” value [5] was 0.79 and the “log k IAM” value [6] was 0.41. For the same compound, the “k IAM” value [6] was 2.58, the “k HSA” value ([7]; pH 7.4) was 1.01 and the chromatographic logD [8] was 0. For the same compound, the M/P [9, 14] was 0.25, the PB [10, 15] was 0.85 and the BB vivo ([11]; Table S1) was 0.350. The “CNS+/-” value ([12]; Table S1, coded 1/0) was 1.

In the case of `CN(C)CCC=C1c2ccccc2CCc2ccccc21` [amitriptyline], the “NP (Rf value from the NP plate impregnated with 2 mg/mL BSA solution)” value ([2]; Table S8, external group) is reported as 0.31, the “RP (Rf value from the RP plate impregnated with 2 mg/mL BSA solution)” value ([3]; Table S8, external group) is reported as 0.63 and the “CNP (Rf value from the non-impregnated NP plate, control)” value ([4]; Table S8, external group) is reported as 0.32. The “CRP (Rf value from the non-impregnated RP plate, control)” value ([5]; Table S8, external group) was 0.67, the “log kIAM” value ([6]; Table S9, external group) was 0.19 and the kHSA ([7]; Table S9, external group) was 5.87. For the same compound, the chromatographic logD [8] was 0.77, the M/P ([9]; Table S6, external group (n = 38)) was 0.92 and the PB ([10]; Table S6, external group (n = 38), given as fraction) was 0.95. The BB vivo ([11]; Table S6, external group) was 0.89 and the “CNS+/-” value ([12]; Table S6, external group, coded 1/0) was 1.

In the case of `NC(=O)N1c2ccccc2C=Cc2ccccc21` [carbamazepine], the M/P code [1] is reported as 2 (2 corresponds to the range of 0.40–0.80—at the safety limit), the “NP (Rf, BSA-impregnated NP plate)” value [2] is reported as 0.95 and the “RP (Rf, BSA-impregnated RP plate)” value [3] is reported as 0.84. The “CNP (Rf, control NP plate)” value [4] was 0.95, the “CRP (Rf, control RP plate)” value [5] was 0.83 and the “log k IAM” value [6] was 0.18. The “k IAM” value [6] was 1.50, the “log k HSA” value ([7]; pH 7.4) was 0.04 and the “k HSA” value [7, 13] was 1.09. The M/P [9, 14] was 0.558, the PB [10, 15] was 0.76 and the BB vivo ([11]; Table S1) was -0.070. The “CNS+/-” value ([12]; Table S1, coded 1/0) was 1.

In the case of `Clc1cccc(Cl)c1N=C1NCCN1` [clonidine], the M/P code [1] is reported as 4 (4 is M/P >1.20—dangerous), the “NP (Rf, BSA-impregnated NP plate)” value [2] is reported as 0.50 and the “RP (Rf, BSA-impregnated RP plate)” value [3] is reported as 0.68. The “CNP (Rf, control NP plate)” value [4] was 0.49, the “CRP (Rf, control RP plate)” value [5] was 0.73 and the “log k IAM” value [6] was 0.45. For the same compound, the “k IAM” value [6] was 2.83, the “k HSA” value [7, 13] was 1.35 and the chromatographic logD [8] was 0.13. The M/P [9, 14] was 2, the PB [10, 15] was 0.3 and the BB vivo ([11]; Table S1) was 0.150. The “CNS+/-” value ([12]; Table S1, coded 1/0) was 1.

In the case of `O=C1NC(=O)C(c2ccccc2)(c2ccccc2)N1` [phenytoin], the M/P code [1] is reported as 1 (Code 1 corresponds to drugs with an M/P value <0.40—completely safe), the “NP (Rf, BSA-impregnated NP plate)” value [2] is reported as 0.97 and the “RP (Rf, BSA-impregnated RP plate)” value [3] is reported as 0.86. For the same compound, the “CNP (Rf, control NP plate)” value [4] was 0.97, the “CRP (Rf, control RP plate)” value [5] was 0.87 and the “log k IAM” value [6] was 0.25. For the same compound, the “k IAM” value [6] was 1.78, the “k HSA” value [7, 13] was 1.63 and the chromatographic logD [8] was 0.21. For the same compound, the M/P [9, 14] was 0.29, the PB [10, 15] was 0.9 and the BB vivo ([11]; Table S1) was -0.096. For the same compound, the “CNS+/-” value ([12]; Table S1, coded 1/0) was 1.

With `CN/C(=N/CCSCc1nc[nH]c1C)NC#N` [cimetidine] the M/P code [1] was 4 (4 is M/P >1.20—dangerous), the “NP (Rf, BSA-impregnated NP plate)” value [2] was 0.67 and the “RP (Rf, BSA-impregnated RP plate)” value [3] was 0.87. For the same compound, the “CNP (Rf, control NP plate)” value [4] was 0.64, the “CRP (Rf, control RP plate)” value [5] was 0.88 and the “log k IAM” value [6] was -0.58. For the same compound, the “k IAM” value [6] was 0.26, the “k HSA” value [7, 13] was 0.67 and the chromatographic logD [8] was -0.17. The M/P [9, 14] was 1.7, the PB [10, 15] was 0.17 and the BB vivo ([11]; Table S1) was -1.420. The “CNS+/-” value ([12]; Table S1, coded 1/0) was 0.

For `Cc1ncc2n1-c1ccc(Cl)cc1C(c1ccccc1F)=NC2` [midazolam], the M/P code [1] was 2 (2 corresponds to the range of 0.40–0.80—at the safety limit), the “NP (Rf, BSA-impregnated NP plate)” value [2] was 0.83 and the “RP (Rf, BSA-impregnated RP plate)” value [3] was 0.66. The “CNP (Rf, control NP plate)” value [4] was 0.82, the “CRP (Rf, control RP plate)” value [5] was 0.66 and the “log k IAM” value [6] was 0.76. The “k IAM” value [6] was 5.69, the “k HSA” value ([7]; pH 7.4) was 3.22 and the chromatographic logD [8] was 0.51. The M/P [9, 14] was 0.785, the PB [10, 15] was 0.97 and the BB vivo ([11]; Table S1) was 0.398. The “CNS+/-” value ([12]; Table S1, coded 1/0) was 1.
